Test results from patent US20050282814A1, “Vasculostatic agents and methods of use thereof” (TargeGen, Inc., priority 2002, published 2005).

Tests used:
B 16 melanoma cells = experiment: B16 melanoma lung metastases, effect on IL-2 anti-tumor activity; type: in vivo, C57 mice; details: 100,000 U IL-2 and/or compound I.P. every 8 hours for 5 days; compound D 1 mg/kg range, compound E 0.1 mg/kg range
Protocol: Invention compound concentrations are listed in parenthesis in mg/kg while IL-2 concentration is given in parenthesis kilounits.
Syngeneic B 16 melanoma cells were injected I.V. in order to establish lung metastases in C57 mice. Beginning 10 days after cells were injected, 100,000 U of IL-2 and/or indicated invention compounds were given I.P. every 8 hours for 5 days. Animals were sacrificed at day 18, lungs were collected and scored using image analysis software. N=5/group, p<0.02. […] Invention compound concentrations are listed in parenthesis in mg/kg while IL-2 concentration is given in parenthesis kilounits.

CTLL2 = experiment: IL-2 dependent T-cell proliferation, XTT assay; type: cell-based, mouse; details: 96 hours, 50 pg human recombinant IL-2; compound E: in the therapeutic range (<1 μM)
Protocol: An IL-2 dependent […] T cell line, CTLL2, was used to evaluate IL-2 dependent proliferation over 96 hours in the presence of 50 pg of human recombinant IL-2 (R&D Systems) and the indicated compounds using the XTT assay.

ARDS-induced edema = experiment: Oleic acid induced ARDS lung edema, wet/dry weight; type: in vivo, NIH Swiss mice; details: 1.5 mg/kg oleic acid i.p., 4 hours; compound in the 0.5 mg/kg range
Protocol: FIG. 12 illustrates the effects of invention compounds for their capacity to inhibit edema associated with Acute Respiratory Distress Syndrome (ARDS). NIH Swiss mice were given an intraperitoneal injection of 1.5 mg/kg Oleic Acid of (in this example formulated in saline) and/or invention compounds.
NIH Swiss mice were given an intraperitoneal injection of 1.5 mg/kg Oleic Acid of (in this example formulated in saline) and/or invention compounds.

[1] = tested on: PAF-induced inflammatory edema; experiment: PAF-induced paw inflammatory edema; type: in vivo, Sprague Dawley rats; details: 5 mg/kg iv 30 min before PAF; 3 hours
Protocol: (§1) In order to determine the influence of compounds on the development of inflammation, Sprague Dawley rats were first injected intravenously with either vehicle or test compound at 5 mg/kg, and then 30 min later either PBS (as a control), dextran or platelet activating factor (PAF) was injected into the plantar surface of the hindlimbs, dextran and PAF being known to induce localized inflammatory responses marked by edema. Three hours later, paw dimensions were measured using a caliper and paw volumes calculated; data are shown as the increase in paw volume (mm^3) as compared to controls (paws injected with PBS).

VEGF-induced edema = experiment: Miles assay, VEGF-induced edema; type: in vivo, Sprague-Dawley rats; details: general statement in description
Protocol: A rodent model of vascular edema, the Miles assay, was used to screen compounds for their ability to inhibit VEGF-induced edema.
Sprague-Dawley rats were first injected IV with vehicle alone or test agent, followed by IV injection of Evans blue dye, followed by intradermal injections of saline and VEGF (200 ng/injection site) along both shaved flanks. After 45 min, intradermal injection sites were photographed and then scored by a blinded observer for extravasation of Evans blue dye into the dermis (dermal bluing) according to a 4 point scoring system (3=maximal bluing, ≧75% of response in vehicle-treated animals; 2=medium bluing, >25% but <75% of vehicle-treated animals; 1=minimal bluing, ≦25% of vehicle-treated animals; 0=bluing equivalent to saline injection sites on same animal). Individual scores for 4 injection sites (from 2 separate animals) were summed and are shown as a scale of 0-12, with a lower score indicating the greater anti-edema activity; note that all vehicle-treated groups score a value of 12, based on the scoring system outlined above.

[2] = target: T1, human p120γ subunit of PI3K (Homo sapiens, UniProt P48736); experiment: PI3K p120γ enzymatic activity at two concentrations (Upstate Group); type: biochemical; details: 100% = no inhibition, 0% = complete inhibition; for remaining activity at 0.5 µM: read-out: Percent Control Value at 0.5 μM; for remaining activity at 5 µM: read-out: Percent Control Value at 5 μM
T1 construct: Upstate Group, Charlottesville, Va; (ran the assay under contract)
Protocol: The ability of compounds to inhibit the activity of PI3K kinase was determined using biochemical assays. In a first assay, compounds were tested at two concentrations (0.5 and 5 μM) for their ability to inhibit enzymatic activity of the human p120γ subunit of PI3K (the assay being performed under contract by Upstate Group, Charlottesville, Va.).

acute myocardial infarct = experiment: Rat acute myocardial infarct model (60 min LAD occlusion, reperfusion); type: in vivo, Sprague-Dawley rats; details: rat
Protocol: A rodent model of acute myocardial infarct, in which the proximal left anterior descending coronary artery (LAD) is occluded for 60 min followed by reperfusion, was used to determine whether test agents reduced infarct size at 24 hours.
Myocardial infarcts were created in Sprague-Dawley rats (200-300 g body weight) by a 60 min occlusion of the LAD followed by LAD reperfusion. At 90 min post-reperfusion, either vehicle alone or test agents were injected IV. At 24 hr post-treatment, the ischemic zone (area at-risk, AAR) was delineated by re-ligation of the LAD followed by IV injection of alkali blue dye, after which hearts were sectioned along the short axis and stained using triphenyltetrazolium chloride to delineate viable from infarcted myocardium. Photographic images were then analyzed using morphometric software to calculate infarct area as a percent of the at-risk area.
The following studies were performed as described above, except that the timing of 3-[2,4-diamino-6-(3-hydroxyphenyl)pteridin-7-yl] phenol dihydrochloride salt administration (at 0.1 mg/kg) was varied. In one group, 3-[2,4-diamino-6-(3-hydroxyphenyl)pteridin-7-yl] phenol dihydrochloride salt was administered at both 60 and 240 min post-occlusion.
In a porcine MI model (90 min of LAD occlusion followed by complete reperfusion), a single 0.3 mg/kg IV bolus delivered 30 min post-reperfusion reduced infarct size by […] vs. controls (40% vs. 56%, N=12-13, P=0.03).

[3] = tested on: VEGF-induced Akt kinase phosphorylation; experiment: VEGF-induced Akt phosphorylation in lung, Western blot; type: in vivo, Sprague Dawley rats
Protocol: The ability of compounds to impact PI3K activity in vivo was assessed by examining compound influence on vascular endothelial growth factor (VEGF)-induced Akt kinase phosphorylation (VEGF stimulation being an inducer of PI3K activity, and Akt kinase being a direct target of PI3K). Sprague Dawley rats were first injected intravenously (iv) with either vehicle or test compound at 5 mgfkg, and then 30, 60 or 120 min later injected iv with VEGF. Five minutes later, lungs were harvested and used to generate tissue lysates, which were then probed for phosphorylated Akt using Western blot technology; non-phosphorylated Akt was also probed in the same blots as a loading control. In other studies, test compounds was dosed at either 0.5 or 5 mg/kg, and VEGF delivered 60 min later, in order to assess the dose-response relationship of a compound's activities.

[4] = tested on: dextran-induced inflammatory edema; experiment: Dextran-induced paw inflammatory edema; type: in vivo, Sprague Dawley rats; details: 5 mg/kg iv 30 min before dextran; 3 hours
Protocol: as §1

[5] = target: recombinant phosphatidylinositol 3-kinase-p120γ (PI3K) (Homo sapiens, UniProt P48736); experiment: biochemical
recombinant phosphatidylinositol 3-kinase-p120γ (PI3K), sequence (P48736 whole entry): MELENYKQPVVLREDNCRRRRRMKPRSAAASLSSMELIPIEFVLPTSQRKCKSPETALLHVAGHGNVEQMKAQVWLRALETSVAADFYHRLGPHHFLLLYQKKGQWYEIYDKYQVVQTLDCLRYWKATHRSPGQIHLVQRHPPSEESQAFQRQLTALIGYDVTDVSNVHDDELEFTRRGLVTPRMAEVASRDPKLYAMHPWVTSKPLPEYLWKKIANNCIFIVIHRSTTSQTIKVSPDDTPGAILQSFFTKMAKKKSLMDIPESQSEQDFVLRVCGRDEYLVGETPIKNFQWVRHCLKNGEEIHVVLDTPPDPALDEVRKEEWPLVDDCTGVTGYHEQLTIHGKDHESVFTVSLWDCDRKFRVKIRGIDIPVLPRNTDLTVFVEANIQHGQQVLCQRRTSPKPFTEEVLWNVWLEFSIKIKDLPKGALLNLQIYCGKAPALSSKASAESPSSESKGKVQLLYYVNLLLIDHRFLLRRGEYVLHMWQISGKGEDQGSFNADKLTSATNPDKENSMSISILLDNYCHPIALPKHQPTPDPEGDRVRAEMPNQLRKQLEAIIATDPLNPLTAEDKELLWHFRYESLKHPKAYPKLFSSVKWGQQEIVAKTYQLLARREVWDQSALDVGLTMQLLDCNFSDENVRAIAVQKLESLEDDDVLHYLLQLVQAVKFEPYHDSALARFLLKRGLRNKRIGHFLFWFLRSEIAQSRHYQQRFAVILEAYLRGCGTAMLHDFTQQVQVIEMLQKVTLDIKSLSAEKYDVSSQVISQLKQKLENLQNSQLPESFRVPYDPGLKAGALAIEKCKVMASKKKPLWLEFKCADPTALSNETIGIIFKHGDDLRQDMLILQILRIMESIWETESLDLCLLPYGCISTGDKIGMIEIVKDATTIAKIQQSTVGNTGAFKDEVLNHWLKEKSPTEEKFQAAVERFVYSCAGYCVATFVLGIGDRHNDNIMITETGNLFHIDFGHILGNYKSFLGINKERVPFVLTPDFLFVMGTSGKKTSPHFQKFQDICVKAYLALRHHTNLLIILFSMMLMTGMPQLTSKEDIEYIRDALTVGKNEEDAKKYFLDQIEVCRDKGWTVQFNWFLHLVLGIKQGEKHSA

T1 sequence (P48736 whole entry): as above

In the case of `O=C(O)c1ccccc1C(=O)Nc1ccccc1-c1cc2ccccc2[nH]1` [compound D], the “impact on the anti-tumor activity of IL-2” value (B 16 melanoma cells) is reported as “no significant impact” and the “impact on IL-2 induced T-cell proliferation” value (CTLL2) is reported as “no significant impact”.

In the case of `Nc1nc(N)c2nc(-c3cccc(O)c3)c(-c3cccc(O)c3)nc2n1.O=S(=O)(O)O` [compound E], the “impact on the anti-tumor activity of IL-2” value (B 16 melanoma cells) is reported as “no significant impact”, the “reduction of ARDS-induced edema” value (ARDS-induced edema) is reported as over 50% and the “impact on IL-2 induced T-cell proliferation” value (CTLL2) is reported as “no significant impact”.

In the case of `Nc1nc(N)c2nc(-c3cccc(O)c3)c(-c3cccc(O)c3)nc2n1` [6,7-bis-(3-hydroxyphenyl)-pteridine-2,4-diamine], the “PAF-induced increase in paw volume” value [1] is reported as “blocked these responses”, the “inhibition of edema formation in VEGF-treated animals” value (VEGF-induced edema) is reported as “inhibit edema formation in VEGF-treated animals” and the remaining activity at 0.5 µM [2] is reported as 47%. The remaining activity at 5 µM [2] was 5%, the “infarct area as percentage of ischemic territory (mean±SD)” value (acute myocardial infarct; 0.3 mg/kg IV bolus 60 min into reperfusion, 24 hr, vehicle 62%±7) was 35% and the “infarct reduction with varied dosing time” value (acute myocardial infarct; dosing immediately at reperfusion or out to 3 hr later) was “Equivalent infarct reductions”. For the same molecule, the “Inhibition of VEGF-induced Akt phosphorylation, time course” value ([3]; 5 mg/kg iv, VEGF 30, 60 or 120 min later, lung lysates) was “Inhibition of VEGF-induced Akt phosphorylation was seen at all time-points examined”, the “Inhibition of VEGF-induced Akt phosphorylation, dose-response” value ([3]; 0.5 or 5 mg/kg iv, VEGF 60 min later, lung lysates) was “at all 6,7-bis-(3-hydroxyphenyl)-pteridine-2,4-diamine doses examined” and the “blockade of Akt phosphorylation following VEGF delivery” value ([3]; general statement in description) was “blockade of Akt phosphorylation”. For the same molecule, the “dextran-induced increase in paw volume” value [4] was “blocked these responses”.

`Nc1ncnc2nc(-c3cccc(O)c3)c(-c3cccc(O)c3)nc12` [6,7-bis(3-hydroxyphenyl)-pteridin-4-ylamine] showed an IC50 [5] of 3.9 µM, a remaining activity at 0.5 µM [2] of 97% and a remaining activity at 5 µM [2] of 71%.
